Consider 2 compounds from patent US20240101552A1, “CARBONYL HETEROCYCLIC COMPOUND AND APPLICATION THEREOF” (SHANGHAI PHARMACEUTICALS HOLDING CO., LTD., priority 2020, published 2024).

In data set [1] the test system is TNBS-induced colitis in mice. Nature of the data set: Alleviating effect on TNBS-induced enteritis (colitis) in mice, study (I). Format: in vivo, Balb/c mice. The settings on record: vs Vehicle group, Mesalamine PO 100 mpk QD. As to the method:
Preparation method of L56: an appropriate amount of L56 compound was weighed into a brown sample vial, added with a certain volume of solvent 95% (20% HP-β-CD)+5% (10% sodium benzoate), the mixture was vortexed for 1 minute, and dissolved ultrasonically. The compound was prepared once a day.
Preparation method of L30: an appropriate amount of L30 compound was weighed into a brown sample vial, added with a certain volume of solvent 95% (20% HP-β-CD)+5% (10% sodium benzoate), the mixture was vortexed for 1 minute, and dissolved ultrasonically. The compound was prepared once a day.
Preparation method of Mesa (Mesalamine): an appropriate amount of Mesalamine (Selleck) was weighed into a brown sample vial, added with a certain volume of solvent 0.5% CMC-Na, the mixture was vortexed for 1 minute, and dissolved ultrasonically. The compound was prepared once a day.
Fifty-six female Balb/c mice, weighing about 18 g and 8-10 weeks old, were randomly divided into seven groups, including six model groups and one Sham control group. The administration was started on Day 1 and ended on Day 7, with the compounds prepared once a day, as detailed in Table 1 for route and frequency of administration, and Table 2 for compound preparation and volume of administration.
(§1) Balb/c mice weighing about 18-20 g were anesthetized with 0.25 mL of 1.25% Avertin on Day 0. The mice in the model group were perfused rectally with 150 μL of 1% TNBS solution (ethanol with a final concentration of 50%). The mice in the Sham control group were perfused rectally with 50% ethanol on Day 0.
(§2) The mouse colon was photographed, measured for the length, and weighed after the contents were removed. The colon of each mouse was then cut longitudinally at ½, rolled in a uniform direction by Swiss-roll method and fixed in neutral paraformaldehyde.
(§3) The DAI scoring consisted of 3 parts, taking the method of mixed scoring of weight change, stool and blood in stool, and the specific DAI scoring criteria were shown in Table 3. Throughout the experiment, the DAI scoring of all mice was done by the same person to ensure the scale consistency of the scoring.
The histopathological scoring was performed by a professional pathologist on the clinical pathology platform in a double-blind manner.
The experimental data were statistically analyzed by ANOVA method, positive drug Mesalamine (PO, 100 mpk, QD) group, L56 (PO, 50 mpk, BID) group, L30 (PO, 50 mpk, BID) group, *p<0.05, **p<0.01, ***p<0.005, ****p<0.0001

In data set [2] the test system is TNBS-induced colitis in mice. Nature of the data set: Alleviating effect on TNBS-induced colitis in mice, study (II). Format: in vivo, Balb/c mice. Conditions: vs Vehicle group; L compounds PO 50 mpk BID, Mesalazine PO 100 mpk QD. The procedure: Sixty female Balb/c mice, weighing about 18 g and 8-10 weeks old, were randomly divided into twelve groups, including eleven model groups and one Sham control group. The administration was started on Day 1 and ended on Day 7, with the compounds prepared once a day, as detailed in Table 1 for route and frequency of administration, and Table 2 for compound preparation and volume of administration.
as §1, §2, §3
The experimental data were statistically analyzed by ANOVA method, and data of other groups and the Vehicle (PO, QD) group were analyzed by Dunnett's test to compare data of multiple groups, *p<0.05, **p<0.01, ***p<0.005, ****p<0.0001

Data set [3] is described as follows: Solubility remark in the LANCL2 binding table (footnote a). Format: physicochemical. Set-up: key: ª: “a” indicated poor solubility.

Structures are written as SMILES.

For `Nc1ccc(O)c(C(=O)O)c1` [Mesalamine], in data set [1] (L56 PO 50 mpk BID), the “colon tissue pathological scores (HE staining)” value was “lower colon tissue pathological scores with a statistically significant difference”. Moreover, in data set [1] (L compounds PO 50 mpk BID), the “DAI scores (FIG. 13B)” value is “significantly lower”, the “colon length (FIG. 14B)” value is reported as “significantly more colon length”, the “colon weight (FIG. 14C)” value is reported as “less colon weight” and the “weight loss of the mice (FIG. 13A)” value is “significantly slowed down”. For the same compound, in data set [1] (L compounds PO 50 mpk BID), the “weight-to-length ratio of colon (FIG. 14A)” value is listed as “significantly lower”. In data set [2], the “colon weight (FIG. 18B)” value is “less colon weight” and the “weight-to-length ratio of colon (FIG. 18C)” value is reported as “significantly lower”.
For `O=C(c1cccc(-c2cn3ccccc3n2)c1)N1CCN(C(=O)c2cccc(-c3cn4ccccc4n3)c2)CC1` [Embodiment L-36, Piperazine-1,4-diylbis((3-(imidazol[1,2-a]pyridin-2-yl)phenyl)methanone)], the “solubility (footnote a)” value in data set [3] was “ª”.
